Patent US8178668B2, “2-aminopyridine kinase inhibitors” (OSI Pharmaceuticals, LLC, priority 2008, dated 2012)
Where a name gives a salt, the structure may show the parent alone.

Tests used:
MET (human) = MET (human) (Homo sapiens, UniProt P08581); assay: MET kinase AlphaScreen assay (Km of ATP); type: biochemical; conditions: ATP at Km; at least duplicate experiments
Method in brief: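 AlphaScreen detection with PT66 beads (1 h) follows a 60 min room-temperature MET reaction. Substrate is 200 ng/μL biotinylated poly(Glu,Tyr), with ATP set at an enzyme-optimized concentration. Buffer is HEPES pH 7.4 with MgCl2, MnCl2 and 0.334 mM vanadate, compounds at 1% DMSO.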

RON (human) = RON (human) (Homo sapiens, UniProt Q04912); assay: RON kinase AlphaScreen assay (Km of ATP); type: biochemical; conditions: ATP at Km; at least duplicate experiments
Method in brief: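 AlphaScreen with PT66 donor/acceptor beads, read after 1 h, detected phosphorylation of biotinylated poly(Glu,Tyr) by human RON. Enzyme-started reactions ran 30 min at room temperature with ATP at Km. Buffer was HEPES pH 7.4 with MgCl2, glycerol, vanadate and 1% DMSO.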

Sequence of RON (human) (Q04912 25-1400): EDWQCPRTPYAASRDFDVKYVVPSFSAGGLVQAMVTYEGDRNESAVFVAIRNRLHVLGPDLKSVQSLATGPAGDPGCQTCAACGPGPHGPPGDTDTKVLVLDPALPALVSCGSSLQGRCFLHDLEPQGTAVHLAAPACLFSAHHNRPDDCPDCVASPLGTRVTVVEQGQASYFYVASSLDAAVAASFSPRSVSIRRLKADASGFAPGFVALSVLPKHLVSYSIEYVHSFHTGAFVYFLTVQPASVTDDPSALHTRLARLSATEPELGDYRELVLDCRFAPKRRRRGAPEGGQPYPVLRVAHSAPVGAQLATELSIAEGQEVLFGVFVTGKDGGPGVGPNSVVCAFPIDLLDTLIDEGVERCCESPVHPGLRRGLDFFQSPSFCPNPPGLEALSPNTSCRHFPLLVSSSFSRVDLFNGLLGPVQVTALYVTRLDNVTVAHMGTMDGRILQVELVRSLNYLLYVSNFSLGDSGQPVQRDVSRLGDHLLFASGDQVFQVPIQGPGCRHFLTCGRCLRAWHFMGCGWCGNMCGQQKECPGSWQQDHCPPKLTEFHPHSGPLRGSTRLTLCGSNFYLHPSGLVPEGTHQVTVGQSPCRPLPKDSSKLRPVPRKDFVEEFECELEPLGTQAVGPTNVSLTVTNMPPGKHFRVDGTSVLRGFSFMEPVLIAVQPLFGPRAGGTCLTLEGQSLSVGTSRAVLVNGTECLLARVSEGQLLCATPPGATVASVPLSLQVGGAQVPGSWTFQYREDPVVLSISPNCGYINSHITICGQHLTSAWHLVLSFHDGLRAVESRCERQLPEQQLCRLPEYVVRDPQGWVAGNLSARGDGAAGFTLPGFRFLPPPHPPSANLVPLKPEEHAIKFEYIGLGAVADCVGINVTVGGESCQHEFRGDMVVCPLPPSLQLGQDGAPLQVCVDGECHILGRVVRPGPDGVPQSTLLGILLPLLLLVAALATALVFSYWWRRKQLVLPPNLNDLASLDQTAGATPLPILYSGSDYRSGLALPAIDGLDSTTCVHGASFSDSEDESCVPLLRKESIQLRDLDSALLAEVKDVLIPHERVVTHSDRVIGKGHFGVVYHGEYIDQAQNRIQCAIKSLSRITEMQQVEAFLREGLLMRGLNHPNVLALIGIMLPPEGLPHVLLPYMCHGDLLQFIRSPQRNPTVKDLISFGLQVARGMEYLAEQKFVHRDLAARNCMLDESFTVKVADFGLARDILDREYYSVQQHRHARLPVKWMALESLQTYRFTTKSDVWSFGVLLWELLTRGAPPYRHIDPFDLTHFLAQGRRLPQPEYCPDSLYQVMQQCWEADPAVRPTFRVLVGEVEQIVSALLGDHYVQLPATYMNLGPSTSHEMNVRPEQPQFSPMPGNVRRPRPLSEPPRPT
Sequence of MET (human) (P08581 25-1390): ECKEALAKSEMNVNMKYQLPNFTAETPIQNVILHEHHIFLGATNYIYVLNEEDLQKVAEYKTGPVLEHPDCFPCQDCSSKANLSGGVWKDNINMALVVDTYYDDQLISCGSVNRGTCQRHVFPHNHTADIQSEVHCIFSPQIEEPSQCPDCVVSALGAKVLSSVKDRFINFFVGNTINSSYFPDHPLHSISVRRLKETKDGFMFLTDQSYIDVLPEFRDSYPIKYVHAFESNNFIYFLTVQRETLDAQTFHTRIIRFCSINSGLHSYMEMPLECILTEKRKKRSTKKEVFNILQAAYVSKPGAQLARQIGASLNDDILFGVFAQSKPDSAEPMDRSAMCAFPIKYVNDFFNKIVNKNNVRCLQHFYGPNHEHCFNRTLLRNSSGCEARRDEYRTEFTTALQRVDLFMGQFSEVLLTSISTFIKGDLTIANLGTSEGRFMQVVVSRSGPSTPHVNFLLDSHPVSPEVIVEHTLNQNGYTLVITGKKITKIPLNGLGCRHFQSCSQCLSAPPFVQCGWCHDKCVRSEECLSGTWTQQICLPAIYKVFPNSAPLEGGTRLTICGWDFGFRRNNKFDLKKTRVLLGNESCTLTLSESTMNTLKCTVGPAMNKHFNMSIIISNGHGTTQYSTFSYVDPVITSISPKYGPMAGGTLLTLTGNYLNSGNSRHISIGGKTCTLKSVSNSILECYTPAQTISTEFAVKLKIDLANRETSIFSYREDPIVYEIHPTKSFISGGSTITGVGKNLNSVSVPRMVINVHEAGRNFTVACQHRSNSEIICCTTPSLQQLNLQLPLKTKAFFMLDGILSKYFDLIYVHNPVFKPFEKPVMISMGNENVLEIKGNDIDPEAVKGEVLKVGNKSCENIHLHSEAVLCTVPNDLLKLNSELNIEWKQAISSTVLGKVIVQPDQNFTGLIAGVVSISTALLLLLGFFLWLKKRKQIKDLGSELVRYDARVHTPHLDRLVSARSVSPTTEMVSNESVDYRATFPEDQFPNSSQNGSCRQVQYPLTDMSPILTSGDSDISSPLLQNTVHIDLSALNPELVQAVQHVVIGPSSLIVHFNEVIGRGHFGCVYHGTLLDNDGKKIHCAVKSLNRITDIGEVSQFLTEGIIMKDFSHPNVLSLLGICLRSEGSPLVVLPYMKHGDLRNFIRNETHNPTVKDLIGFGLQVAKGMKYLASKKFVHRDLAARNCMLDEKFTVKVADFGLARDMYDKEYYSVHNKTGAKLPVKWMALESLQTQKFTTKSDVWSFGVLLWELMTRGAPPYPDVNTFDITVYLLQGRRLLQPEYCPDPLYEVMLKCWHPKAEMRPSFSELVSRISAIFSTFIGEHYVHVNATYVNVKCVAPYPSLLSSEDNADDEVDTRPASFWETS

Row | SMILES | IC50 (MET (human)) | IC50 (RON (human))
1 | Nc1ncc(-c2cnn(CCC(=O)N3CCC(O)CC3)c2)cc1-c1nc2ccccc2s1 [Example 290, 3-[4-(6-Amino-5-benzothiazol-2-ylpyridin-3-yl)-pyrazol-1-yl]-1-(4-hydroxypiperidin-1-yl)-propan-1-one] | 0.1 to 1 µM | 1 to 20 µM
2 | Nc1ncc(-c2cnn(CCC(=O)N3CCOCC3)c2)cc1-c1nc2ccccc2s1 [Example 291, 3-[4-(6-Amino-5-benzothiazol-2-ylpyridin-3-yl)-pyrazol-1-yl]-1-morpholin-4-ylpropan-1-one] | 1 to 20 µM | > 20 µM
3 | COCCNC(=O)CCn1cc(-c2cnc(N)c(-c3nc4ccccc4s3)c2)cn1 [Example 292, 3-[4-(6-Amino-5-benzothiazol-2-ylpyridin-3-yl)-pyrazol-1-yl]-N-(2-methoxyethyl)-propionamide] | 1 to 20 µM | > 20 µM
4 | Nc1ncc(-c2cnn(CCC(=O)NCCO)c2)cc1-c1nc2ccccc2s1 [Example 293, 3-[4-(6-Amino-5-benzothiazol-2-ylpyridin-3-yl)-pyrazol-1-yl]-N-(2-hydroxyethyl)-propionamide] | 0.1 to 1 µM | 1 to 20 µM
5 | COCCN(CCOC)C(=O)CCn1cc(-c2cnc(N)c(-c3nc4ccccc4s3)c2)cn1 [Example 294, 3-[4-(6-Amino-5-benzothiazol-2-ylpyridin-3-yl)-pyrazol-1-yl]-N,N-bis-(2-methoxyethyl)-propionamide] | 1 to 20 µM | 1 to 20 µM
6 | CN(C)C(=O)CCn1cc(-c2cnc(N)c(-c3nc4ccccc4s3)c2)cn1 [Example 295, 3-[4-(6-Amino-5-benzothiazol-2-ylpyridin-3-yl)-pyrazol-1-yl]-N,N-dimethylpropionamide] | 0.1 to 1 µM | 1 to 20 µM
7 | CNC(=O)CCn1cc(-c2cnc(N)c(-c3nc4ccccc4s3)c2)cn1 [Example 296, 3-[4-(6-Amino-5-benzothiazol-2-ylpyridin-3-yl)-pyrazol-1-yl]-N-methylpropionamide] | 1 to 20 µM | 1 to 20 µM
8 | NC(=O)CCn1cc(-c2cnc(N)c(-c3nc4ccccc4s3)c2)cn1 [Example 297, 3-[4-(6-Amino-5-benzothiazol-2-ylpyridin-3-yl)-pyrazol-1-yl]-propionamide] | 0.1 to 1 µM | 1 to 20 µM
9 | Nc1ncc(-c2cnn(C3CCNCC3)c2)cc1-c1nc2c(s1)CCCCC2 [Example 299, 5-(1-Piperidin-4-yl-1H-pyrazol-4-yl)-3-(5,6,7,8-tetrahydro-4H-cycloheptathiazol-2-yl)-pyridin-2-ylamine] | 0.1 to 1 µM | 0.1 to 1 µM
10 | Nc1ncc(-c2cnn(C3CCNCC3)c2)cc1N1CCc2c(F)ccc(F)c2C1 [Example 303, 3-(5,8-Difluoro-3,4-dihydro-1H-isoquinolin-2-yl)-5-(1-piperidin-4-yl-1H-pyrazol-4-yl)-pyridin-2-ylamine] | 0.1 to 1 µM | 0.1 to 1 µM

Next, values leading:

Row | IC50 (MET (human)) | IC50 (RON (human)) | SMILES
11 | ≤ 0.1 µM | ≤ 0.1 µM | Nc1ncc(-c2cnn(C3CCNCC3)c2)cc1-c1nc2c(s1)CCCC2 [Example 298, 5-(1-Piperidin-4-yl-1H-pyrazol-4-yl)-3-(4,5,6,7-tetrahydro-benzothiazol-2-yl)-pyridin-2-ylamine]
12 | 0.1 to 1 µM | 1 to 20 µM | Nc1ncc(-c2cnn(C3CCNCC3)c2)cc1N1CCc2ccccc2C1 [Example 300, 3-(3,4-Dihydro-1H-isoquinolin-2-yl)-5-(1-piperidin-4-yl-1H-pyrazol-4-yl)-pyridin-2-ylamine]
13 | 1 to 20 µM | 1 to 20 µM | Nc1ncc(-c2cnn(C3CCNCC3)c2)cc1N1CCc2c(F)cccc2C1 [Example 301, 3-(5-Fluoro-3,4-dihydro-1H-isoquinolin-2-yl)-5-(1-piperidin-4-yl-1H-pyrazol-4-yl)-pyridin-2-ylamine]
14 | 0.1 to 1 µM | 0.1 to 1 µM | Nc1ncc(-c2cnn(C3CCNCC3)c2)cc1N1CCc2c(Cl)cccc2C1 [Example 302, 3-(5-Chloro-3,4-dihydro-1H-isoquinolin-2-yl)-5-(1-piperidin-4-yl-1H-pyrazol-4-yl)-pyridin-2-ylamine]
15 | 0.1 to 1 µM | 1 to 20 µM | Nc1ncc(-c2cnn(C3CCNCC3)c2)cc1-c1ccc2ccccc2c1 [Example 304, 3-Naphthalen-2-yl-5-(1-piperidin-4-yl-1H-pyrazol-4-yl)-pyridin-2-ylamine trihydrochloride]
